Reference: patent US20080318970A1, “Treatment of Infectious Diseases” (priority 2004, published 2008)
Read-outs that look alike come from different tables or passages of the source.

What was measured:
E. coli, LN 3164 [1] = test: MIC susceptibility test, microdilution broth method (NCCLS), chemosensitising compound alone; assay type: cell-based; details: 16 h
Procedure: Bacteria were sub-cultured on Mueller-Hinton agar plates and incubated over night at 37° C. Pre-warmed Mueller-Hinton broth was inoculated with colonies from the plate and incubated for approximately three hours to achieve a log phase culture. The log phase culture of bacteria was diluted with fresh pre-warmed medium and adjusted to a defined Optical Density (OD) at 600 nm in order to give a final assay concentration of 1×10^4 bacteria/ml medium.
Cell growth was tested using the MIC susceptibility tests by use of the microdilution broth method in accordance to the NCCLS Guidelines (NCCLS Guidelines, Methods for Dilution Antimicrobial Susceptibility Tests for Bacteria That Grow Aerobically; Approved Standard, Sixth Edition, Volume 23; Number 2). A 100% Mueller-Hinton broth and a bacterial concentration of 1×10^4/ml were used.
A log phase culture of bacteria was diluted with fresh pre-warmed medium and adjusted to a defined OD at 600 nm in order to give a final concentration of 1×10^4 bacteria/ml medium in each well. Each chemosensitising compound was added to the bacterial culture in the wells in two-fold dilutions in order to give final concentrations ranging from 8 to 500 μg/ml. Trays were incubated at 37° C. for 16 h. Minimal Inhibitory Concentration, (MIC) is defined as the lowest inhibitory concentration showing no visible growth according to the NCCLS Guidelines.

E. coli, LN 3164 [2] = test: Effect of chemosensitising compounds on DR (DR ratio) with ciprofloxacin, microtiter assay; assay type: cell-based; details: for DR ratio: MIC ciprofloxacin alone / MIC ciprofloxacin + chemosensitising compound at ¼ of its MIC
Procedure: The effects of the chemosensitising compounds on DR were studied by the microtiter assay described above by exposing cells to 0-64 μg/ml anti-infective drug in the absence or presence of chemosensitising compound. Each experiment was repeated in tripleduplicate. MIC values represent the mean values of two separate experiments.
A log phase culture of bacteria was diluted with fresh pre-warmed medium and adjusted to a defined OD at 600 nm in order to give a final concentration of 1×10^4 bacteria/ml medium in each well. […] Anti-infective agent was added to the bacterial culture in the wells in two-fold dilutions in order to give final concentrations ranging from 0 to 64 μg/ml. Trays were incubated at 37° C. for 16 h. The DR ratio was defined as the ratio between the MIC value for anti-infective agent alone divided by the MIC for the anti-infective agent in the presence of the chemosensitising compound. This ratio represents the increase in apparent potency of the anti-infective agent caused by the chemosensitising compound, and may be expressed as
DR ratio=(MICanti-infective agent)/(MICanti-infective agent+chemosensitising compound)

E. faecalis F84 = test: Checkerboard combination study (FIC index); assay type: cell-based, Enterococcus faecalis; details: for FIC index: MDR isolate
Procedure: Enterococcus faecalis, F84. A multidrug resistant clinical isolate.
(§1) The synergistic effect was studied by checkerboard combination studies exposing cells to 0-64 μg/ml anti-infective agent in the absence or presence of trans-flupenthixol, cis-flupenthixol or trans-clopenthixol. Each experiment was repeated in tripleduplicate. MIC values represent the mean values of two separate experiments,
A log phase culture of bacteria was diluted with fresh pre-warmed medium and adjusted to a defined OD at 600 nm in order to give a final concentration of 1×10^4 bacteria/ml medium in each well. […] Anti-infective agent was added to the bacterial culture in the wells in two-fold dilutions in order to give final concentrations ranging from 0 to 64 μg/ml Trays were incubated at 37° C. for 16 h. Wells were assessed visually for growth. The Fractional Inhibitory Concentration (FIC) was calculated for each anti-infective agent alone and in combination with trans-flupenthixol, cis-flupenthixol or trans-clopenthixol. The following formulae were used to calculate the FIC index:
(§2) FIC=FICchemosensitising compound+FICanti-infective agent
(§3) FICchemosensitising compound=(MICchemosensitising compound+anti-infective agent)/(MICchemosensitising compound)
(§4) FICanti-infective agent=(MICanti-infective agent+chemosensitising compound/(MICanti-Infective agent)
(§5) Synergy was defined as a FIC index of <0.5.

E. faecalis F86 = test: Checkerboard combination study (FIC index); assay type: cell-based, Enterococcus faecalis; details: anti-infective agent Dicloxacillin; isolate susceptible (S)
Procedure: Enterococcus faecalis, F86. Susceptible clinical isolate. No development of resistance.
as §1
(§6) A log phase culture of bacteria was diluted with fresh pre-warmed medium and adjusted to a defined OD at 600 nm in order to give a final concentration of 1×10^4 bacteria/ml medium in each well. Each chemosensitising compound was added to the bacterial culture in the wells in two-fold dilutions in order to give final concentrations ranging from 0 to 8 μg/ml. Anti-infective agent was added to the bacterial culture in the wells in two-fold dilutions in order to give final concentrations ranging from 0 to 64 μg/ml Trays were incubated at 37° C. for 16 h. Wells were assessed visually for growth. The Fractional Inhibitory Concentration (FIC) was calculated for each anti-infective agent alone and in combination with trans-flupenthixol, cis-flupenthixol or trans-clopenthixol. The following formulae were used to calculate the FIC index:
as §2, §3, §4, §5

S. aureus E45 = test: Checkerboard combination study (FIC index); assay type: cell-based, Staphylococcus aureus; details: isolate resistant (R)
Procedure: Staphylococcus aureus E45 MRSA. Clinical isolate. Resistant to methicillin. Susceptible to teicoplanin chloramphenicol, fosfomycin, netilmicin and vancomycin.
as §1, §6, §2, §3, §4, §5

S. aureus O11 = test: Checkerboard combination study (FIC index); assay type: cell-based, Staphylococcus aureus; details: anti-infective agent Dicloxacillin; isolate susceptible (S)
Procedure: Staphylococcus aureus O11. Clinical isolate resistant to penicillin. Susceptible to methicillin, tetracycline, beta-lactams, fluoroquinolones, chloramphenicol and aminoglycosides.
as §1, §6, §2, §3, §4, §5

E. coli LN 3164 = test: Checkerboard combination study (FIC index); assay type: cell-based; details: MDR isolate
Procedure: E. coli, LN 3164. Acr AB-ToIC MDR in vitro-selected mutant. Resistant to tetracycline, beta-lactams, fluoroquinolones, chloramphenicol and aminoglycosides.
as §1, §6, §2, §3, §4, §5

E. coli 331ME = test: Checkerboard combination study (FIC index); assay type: cell-based; details: MDR isolate
Procedure: E. coli 331 ME. In vivo-selected multidrug resistant clinical isolates of E. coli. Strains were isolated from a patient with severe cystitis/urosepsis. Resistant to tetracycline, beta-lactams, fluoroquinolones, chloramphenicol and aminoglycosides.
as §1, §6, §2, §3, §4, §5

P. aeruginosa 432b = test: Checkerboard combination study (FIC index); assay type: cell-based; details: isolate resistant (R)
Procedure: P. aeruginosa 432b. Clinical multidrug resistant isolate. Resistant to tetracycline, beta-lactams, fluoroquinolones, and aminoglycosides. Beta-lactamase producing, changes in Penicillin Binding Proteins and changes in Outer Membrane Proteins.
as §1, §6, §2, §3, §4, §5

[3] = clinical trial versus placebo, Johnstone et al.; cited from earlier work
[4] = tested on: Fluconazole Resistant Candida albicans; test: Checkerboard combination study on fungals, broth microdilution (NCCLS M27-A); assay type: cell-based; details: Candida albicans
Procedure: The synergistic effect of Trans-clopenthixol was studied by checkerboard combination studies exposing cells to 0-256 μg/ml anti-infective agent in the absence or presence of trans-clopenthixol (0 to 8 μg/ml in two-fold dilutions). Each experiment was repeated in tripleduplicate. MIC values represent the mean values of two separate experiments.
Clinical Isolate of a Fluconazole Resistant Candida albicans from a Patient with candidemia.
The isolates were subcultured for 24 h on Sabouraud glucose agar before susceptibility testing.
Broth microdilution tests were performed according to NCCLS document M27-A (Ref: National Committee for Clinical Laboratory Standards. (1997). Reference Method for Broth Dilution Antifungal Susceptibility Testing of Yeasts: Approved Standard M27-A. NCCLS, Wayne, Pa.)
Microtitre plates were read spectrophotometrically at 530 nm, after mixing the wells by pipetting to resuspend yeast sediments.
The Fractional Inhibitory Concentration (FIC) was calculated for the anti-infective agent alone and in combination with trans-clopenthixol. The following formulae were used to calculate the FIC index:
as §2, §3
FICanti-infective agent=(MICanti-infective agent+chemosensitising compound/(MICanti-infective agent)
as §5

[5] = anti-infective agent Dicloxacillin
[6] = anti-infective agent Ciprofloxacin
[7] = anti-infective agent Gentamicin
[8] = anti-infective agent Piperacillin

## CNCCCN1c2ccccc2Sc2ccc(Cl)cc21 [Desmethyl-chlorpromazine, desmethylchlorpromazine]
E. coli, LN 3164 [1]; 37° C.
  MIC: 32 µg/mL
E. coli, LN 3164 [2]; E. coli LN 3164
  DR ratio: 2

## CSc1ccc2c(c1)N(CCCN(C)C)c1ccccc1S2 [Thiomethylpromazine, thiomethylpromazine]
E. coli, LN 3164 [1]; 37° C.
  MIC: 32 µg/mL
E. coli, LN 3164 [2]; E. coli LN 3164
  DR ratio: 4

## CN(C)CCCN1c2ccccc2Sc2cccc(Cl)c21 [1-chlorpromazine]
E. coli, LN 3164 [1]; 37° C.
  MIC: 64 µg/mL
E. coli, LN 3164 [2]; E. coli LN 3164
  DR ratio: 2

## CN(C)CCN1c2ccccc2Sc2ccc(Cl)cc21 [2-chloro-10-(2-dimethylaminoethyl)phenothiazine]
E. coli, LN 3164 [1]; Escherichia coli, LN3164, 37° C., read-out: MIC
  MIC: 64 µg/mL
E. coli, LN 3164 [2]; E. coli LN 3164
  DR ratio: 2

## CN(C)CCCN1c2ccccc2[S+]([O-])c2ccc(Cl)cc21 (stereo not shown) [chlorpromazine sulfoxide]
E. coli, LN 3164 [2]; E. coli LN 3164, ciprofloxacin
  activity against drug resistance (in words): same activity against drug resistance as did chlorpromazine

## CC(CN1c2ccccc2Sc2ccccc21)N(C)C (stereo not shown) [Promethazine, promethazine]
E. coli, LN 3164 [1]; 37° C.
  MIC: 64 µg/mL
E. coli, LN 3164 [2]; E. coli LN 3164
  DR ratio: 8

## CN(C)CCCN1c2ccccc2Sc2ccccc21 [Promazine, promazine]
E. coli, LN 3164 [1]; 37° C.
  MIC: 64 µg/mL
E. coli, LN 3164 [2]; E. coli LN 3164, ciprofloxacin
  sensitised drug resistant cells to ciprofloxacin by: 100%
E. coli, LN 3164 [2]; E. coli LN 3164
  DR ratio: 2

## CN(C)CCCN1c2cc(Cl)ccc2Sc2cc(O)c(O)cc21 [7,8-dihydroxy-chlorpromazine, 7,8-dihydroxychlorpromazine]
E. coli, LN 3164 [1]; 37° C.
  MIC: 125 µg/mL
E. coli, LN 3164 [2]; E. coli LN 3164
  DR ratio: 0.5

## CN1CCN(CCCN2c3ccccc3Sc3ccc(Cl)cc32)CC1 [Prochlorperazine, prochlorperazine]
E. coli, LN 3164 [1]; 37° C.
  MIC: 64 µg/mL
E. coli, LN 3164 [2]; E. coli LN 3164
  DR ratio: 4

## CN1CCN(CCCN2c3ccccc3Sc3ccc(C(F)(F)F)cc32)CC1 [Trifluoperazine, trifluoperazine]
E. coli, LN 3164 [1]; 37° C.
  MIC: 16 µg/mL
E. coli, LN 3164 [2]; E. coli LN 3164
  DR ratio: 16

## OCCN1CCN(CC/C=C2\c3ccccc3Sc3ccc(C(F)(F)F)cc32)CC1 [trans-flupenthixol]
E. coli, LN 3164 [1]; 37° C.
  MIC: 32 µg/mL
E. coli, LN 3164 [2]; E. coli LN 3164
  DR ratio: 64
E. faecalis F84; [5]
  FIC index: 0.06
E. faecalis F84; anti-infective agent Vanomycin
  FIC index: 0.13
E. faecalis F86
  FIC index: 0.50
S. aureus E45; [5]
  FIC index: 0.13
S. aureus E45; anti-infective agent Fucidic acid
  FIC index: 0.13
S. aureus O11
  FIC index: 0.50
E. coli LN 3164; [6]
  FIC index: 0.13
E. coli LN 3164; [7]
  FIC index: 0.063
E. coli LN 3164; [8]
  FIC index: 0.13
E. coli 331ME; [6]
  FIC index: 0.006
E. coli 331ME; [7]
  FIC index: 0.02
E. coli 331ME; [8]
  FIC index: 0.13
P. aeruginosa 432b; [6]
  FIC index: 0.03
P. aeruginosa 432b; [7]
  FIC index: 0.06
P. aeruginosa 432b; [8]
  FIC index: 0.13
[3]
  anti-psychotic effect (in words): no activity as an anti-psychotic

## CN(C)CCCN1c2ccccc2Sc2ccc(Cl)cc21 [chlorpromazine]
E. coli, LN 3164 [1]; 37° C.
  MIC: 32 µg/mL
E. coli, LN 3164 [2]; E. coli LN 3164, ciprofloxacin
  sensitised drug resistant cells to ciprofloxacin by: 220%
E. coli, LN 3164 [2]; E. coli LN 3164
  DR ratio: 4
E. coli, LN 3164 [2]; chlorpromazine versus desmethylchlorpromazine
  increase in anti-DR activity, tertiary versus secondary amine: 1.6 fold

## OCCN1CCN(CCCN2c3ccccc3Sc3ccc(Cl)cc32)CC1 [Perphenazine, perphenazine]
E. coli, LN 3164 [1]; 37° C.
  MIC: 125 µg/mL
E. coli, LN 3164 [2]; E. coli LN 3164
  DR ratio: 4

## CN(C)CCCN1c2ccc(O)cc2Sc2ccc(Cl)cc21 [7-hydroxy-chlorpromazine, 7-hydroxychlorpromazine]
E. coli, LN 3164 [1]; 37° C.
  MIC: 125 µg/mL
E. coli, LN 3164 [2]; E. coli LN 3164
  DR ratio: 1

## CN[C@H](CC(C)C)C(=O)N[C@H]1C(=O)N[C@@H](CC(N)=O)C(=O)N[C@H]2C(=O)N[C@H]3C(=O)N[C@H](C(=O)N[C@H](C(=O)O)c4cc(O)cc(O)c4-c4cc3ccc4O)[C@H](O)c3ccc(c(Cl)c3)Oc3cc2cc(c3O[C@@H]2O[C@H](CO)[C@@H](O)[C@H](O)[C@H]2O[C@H]2C[C@](C)(N)[C@H](O)[C@H](C)O2)Oc2ccc(cc2Cl)[C@H]1O [vancomycin, reference compound]
E. faecalis F84; E. faecalis F84 cultivated in the presence of vancomycin at 4 μg/ml
  MIC value: 4 μ/ml

## CN(C)CCCN1c2ccccc2Sc2ccc(C(F)(F)F)cc21 [Trifluopromazine, trifluopromazine]
E. coli, LN 3164 [1]; 37° C.
  MIC: 32 µg/mL
E. coli, LN 3164 [2]; E. coli LN 3164
  DR ratio: 8

## OC(Cn1cncn1)(Cn1cncn1)c1ccc(F)cc1F [Fluconazole, reference compound]
[4]
  MIC: 128 µg/mL

## OCCN1CCN(CCCN2c3ccccc3Sc3ccc(C(F)(F)F)cc32)CC1 [Fluphenazine, fluphenazine]
E. coli, LN 3164 [1]; 37° C.
  MIC: 32 µg/mL
E. coli, LN 3164 [2]; E. coli LN 3164
  DR ratio: 8
